Test system: cerebral vascular smooth muscle (basilar arteries)
Assay: Cerebral vasoconstriction effect: inhibition of adenosine-induced relaxation of isolated basilar artery rings
Conditions: dog basilar artery rings
Procedure: Dogs were anesthetized by intravenous administration of sodium pentobarbital, exsanguinated by decapitation and subjected to craniotomy. The basilar arteries were removed, and ring specimens of cerebral vascular smooth muscle measuring about 2 mm in width were prepared. Each ring specimen was fixed to an injection needle (cut into a 2-mm piece) with a silk thread. The injection needle was fixed to a holder installed in an Easy Magnus Device (Model: UC-2; Kishimoto Medical Instruments), and the specimen was allowed to stabilize for 60 minutes or more under a resting tension of 0.2 g (1.96 mN) in a 37° C. nutritive solution. […] Separately, in the same manner as in the test compound-administered group, dimethylsulfoxide alone was cumulatively added in place of the test compound (solvent-added group). The contraction of the cerebral vascular smooth muscle was then recorded on a recorder (Yokogawa Electric Corporation) from a transducer (Nihon Kohden Corporation) connected to the holder, to which the specimen was fixed, via a strain pressure amplifier (Nihon Kohden Corporation) (n=6). […] The cerebral vasoconstriction effect was determined as the percentage inhibition (%) of the adenosine-induced cerebral vascular smooth muscle relaxation, and comparison was made between the test compound-added group and the solvent-added group.

Structure (SMILES)	inhibition at 0.01 µM (Canis lupus familiaris, 10 nmol/L, n=6, solvent-added group 0.6±7.6%, read-out: percentage inhibition of the adenosine-induced cerebral vascular smooth muscle relaxation) [%]	suppressing effect on adenosine-induced cerebral vascular smooth muscle relaxation (in words) (versus solvent-added group)
Cc1ccc(C(=O)Nc2nc(-c3ccco3)c(C(=O)C3CCOCC3)s2)cn1 [(IIC)]	97.4 ± 1.8	–
CC(C)(O)CCN1CCN(c2cc3nc(-c4ccco4)nn3c(N)n2)CC1 [Compound (IB)]	–	confirmed

From patent US9254283B2, “Therapeutic agent for migraine” (priority 2008, dated 2016)
